From patent US20240398817A1, “CARDIO- AND RENOSAFE ANTIDIABETIC THERAPY” (priority 2018, published 2024)

Tested on: patients with type 2 diabetes at high vascular risk
Experiment: Cardiovascular and Renal Outcomes Trial: linagliptin 5 mg once daily vs placebo on top of standard of care
Assay type: in vivo
Method: The effect of linagliptin on cardiovascular risk in adult patients with type 2 diabetes mellitus and with increased CV risk evidenced by a history of established macrovascular or renal disease (e.g. as defined herein) was evaluated in a multi-center, multi-national, randomized, double-blind parallel group trial. The trial compared the risk of experiencing a major adverse cardiovascular event (MACE) between linagliptin and placebo when these were added to and used concomitantly with standard of care treatments for diabetes (HbA1c), cardiovascular risk factors and renal disease.
The primary endpoint in this trial was the time to first occurrence of three point (3P) MACE. A major adverse cardiac event was defined as a cardiovascular death or a nonfatal myocardial infarction (MI) or a nonfatal stroke. The statistical analysis plan tested for non-inferiority for the occurrence of (3P) MACE. […] The secondary endpoint was a renal composite, defined as renal death or sustained end stage renal disease or sustained decrease of 40% or more in eGFR.
Type 2 diabetes patient with insufficient glycemic control (naïve or pre-treated with any antidiabetic background medication, excluding treatment with GLP-1 receptor agonists, DPP-4inhibitors or SGLT-2 inhibitors if ≥consecutive 7 days, e.g. having HbA1c 6.5-10%), and high risk of cardiovascular events, e.g. defined by: • albuminuria (micro or macro) and previous macrovascular disease: e.g. defined according to Condition I as indicated below; • and/or • impaired renal function: e.g. as defined according to Condition II as indicated below;
Background and aims: People with type 2 diabetes (T2D) are at increased risk for hospitalization for heart failure (hHF), particularly in the setting of concomitant cardiovascular (CV) and/or kidney disease. […] Here we present analyses of HF outcomes with the DPP-4 inhibitor linagliptin (LINA) vs. placebo (PBO) from a Cardiovascular and Renal Outcomes Trial assessing cardiovascular safety and renal microvascular outcome in patients with type 2 diabetes at high vascular risk, a large CV outcomes trial that enrolled participants with T2D at high risk for hHF due to concomitant CV and/or chronic kidney disease. Materials and methods: People with T2D and concomitant CV and/or kidney disease were randomized to receive LINA 5 mg, or PBO once daily (1:1), on top of standard of care. All hHF, CV outcomes, and deaths were centrally adjudicated, with individual and composite HF-related outcomes analyses comparing LINA vs. placebo. Investigator-reported HF-related adverse events, whether or not confirmed by adjudication, were also analyzed. A Cox proportional hazards model adjusting for region and history of HF was used for analyses of first events. Recurrent hHF events were analyzed using a negative binomial model.
Methods: The present Cardiovascular and Renal Outcomes Trial randomized people with T2D and i) concomitant CV disease with UACR >30 mg/g or ii) prevalent CKD (i.e. GFR <45 ml/min/1.73m2 and/or UACR >200 mg/g) to receive the DPP-4 inhibitor linagliptin (5 mg) or placebo once daily in a double-blind fashion. The primary CV endpoint was 3P-MACE, with a key secondary kidney endpoint (adjudicated ESKD, renal death, or sustained ≥40% decrease in eGFR from baseline) and other renal outcomes (including albuminuria and eGFR slope) also assessed. Subgroups were assessed by baseline kidney function (eGFR ≥/<45 ml/min/1.73m2and eGFR ≥/<30, 45 or 60 ml/min/1.73m2).
Adults with type 2 diabetes, HbA1c 6.5-10.0% inclusive, and high CV risk were eligible for inclusion. […] Macrovascular disease eligibility criteria was based on documented and confirmed history of myocardial infarction, coronary artery disease, stroke, carotid artery disease, or peripheral artery disease. Participants with end-stage kidney disease (ESKD), defined as eGFR <15 or requiring maintenance dialysis, were excluded.

[1] = eGFR ≥45 to <60 mL/min/1.73 m^2

Question: Which results are given for `CC#CCn1c(N2CCC[C@@H](N)C2)nc2c1c(=O)n(Cc1nc(C)c3ccccc3n1)c(=O)n2C` [Linagliptin, 1-[(4-methyl-quinazolin-2-yl)methyl]-3-methyl-7-(2-butyn-1-yl)-8-(3-(R)-amino-piperidin-1-yl)-xanthine]?
Answer: Renal death, sustained ESKD, or ≥ doubling of se-creatinine: n (eGFR ≥ 45 (n = 3979)): 54; Renal death, sustained ESKD, or ≥ doubling of se-creatinine: rate/100 patient-years (eGFR ≥ 45 (n = 3979)): 1.38 per 100 patient-years; 3-point MACE: hazard ratio vs placebo [1]: 1.12; 3-point MACE: patients with event/patients analyzed [1]: 81/690; Key secondary kidney outcome: hazard ratio vs placebo [1]: 0.94; Key secondary kidney outcome: patients with event/patients analyzed [1]: 51/690; 3-point MACE: hazard ratio vs placebo (eGFR ≥60 mL/min/1.73 m^2): 0.96; 3-point MACE: patients with event/patients analyzed (eGFR ≥60 mL/min/1.73 m^2): 103/1294; Key secondary kidney outcome: hazard ratio vs placebo (eGFR ≥60 mL/min/1.73 m^2): 1.46; Key secondary kidney outcome: patients with event/patients analyzed (eGFR ≥60 mL/min/1.73 m^2): 54/1294; Non-fatal MI as component of 3-point MACE primary outcome: % (first event of composite): (4.4) %; Non-fatal MI as component of 3-point MACE primary outcome: no. (first event of composite): 154; Non-fatal stroke as component of 3-point MACE primary outcome: % (first event of composite): (1.7) %; Non-fatal stroke as component of 3-point MACE primary outcome: no. (first event of composite): 59; 4-point MACE (3-point MACE or hospitalization for unstable angina): no. (in vivo): 463; 4-point MACE: % (in vivo): (13.3) %; 4-point MACE: hazard ratio vs placebo (in vivo): 1.00; 4-point MACE: rate/1000 patient-years (in vivo): 62.0 per 1000 patient years; Acute pancreatitis, adjudication confirmed: % (in vivo): 0.3%; Acute pancreatitis, adjudication confirmed: N (in vivo): 9^1; Adverse events leading to discontinuation: % (in vivo): 10.3%; Adverse events leading to discontinuation: N (in vivo): 359; Albuminuria progression: rate/100 patient-years (in vivo): 21.36 per 100 patient-years; Albuminuria progression: rate/1000 patient-years (in vivo): 213.6 per 1000 patient years; All cancers (malignancies): % (in vivo): 3.3%; All cancers (malignancies): N (in vivo): 116; Angioedema events with concomitant ACE/ARB use at baseline: % (in vivo): 0.45%; Angioedema events with concomitant ACE/ARB use at baseline: N (in vivo): 13; Any adverse events: % (in vivo): 77.2%; Changes in body weight or waist circumference vs placebo, in words (in vivo): No clinically meaningful differences; Changes in weight, systolic and diastolic blood pressure and LDL/HDL cholesterol vs placebo, in words (in vivo): no different between groups; Chronic pancreatitis, adjudication confirmed: % (in vivo): 0.1%; Chronic pancreatitis, adjudication confirmed: N (in vivo): 2; Colon cancer: % (in vivo): 0.2%; Colon cancer: N (in vivo): 6; Composite microvascular endpoint (renal and eye outcomes): number of patients (in vivo): 785; Composite microvascular endpoint: hazard ratio (95% CI) vs placebo (in vivo): 0.86; Composite microvascular endpoint: rate/1000 patient-years (in vivo): 221.4 per 1000 patient years; Composite ocular endpoint: hazard ratio vs placebo (in vivo): 0.73; Composite ocular endpoint: number of patients (in vivo): 36; Composite ocular endpoint: rate/1000 patient-years (in vivo): 4.7 per 1000 patient years; Composite renal endpoint 2 (50% eGFR) and composite renal endpoint 3 (30% eGFR with eGFR <60) vs placebo, in words (in vivo): No significant difference; Confirmed hypoglycemic adverse events with plasma glucose <54 mg/dl or severe event: % (in vivo): 15.9%; Confirmed hypoglycemic adverse events with plasma glucose <54 mg/dl or severe event: N (in vivo): 557; Contributing to composite microvascular outcome: patients with retinal laser coagulation or anti-VEGF injection for diabetic retinopathy, % (in vivo): 0.2%; Contributing to composite microvascular outcome: patients with sustained >50% eGFR decrease, % (in vivo): 0.6%; Contributing to composite microvascular outcome: patients with sustained ESKD, % (in vivo): 0.3%; Contributing to composite microvascular outcome: patients with vitreous haemorrhage, % (in vivo): 0.1%; Contributing to composite ocular outcome: patients with anti-VEGF injection for diabetic retinopathy, % (in vivo): 0.3%; Contributing to composite ocular outcome: patients with diabetes related blindness, % (in vivo): 0.1%; Contributing to composite ocular outcome: patients with retinal laser coagulation, % (in vivo): 0.2%; Contributing to composite ocular outcome: patients with vitreous haemorrhage, % (in vivo): 0.5%; Coronary revascularization procedure: % (in vivo): (4.6) %; Coronary revascularization procedure: hazard ratio vs placebo (in vivo): 1.07; Coronary revascularization procedure: no. (in vivo): 160; Coronary revascularization procedure: rate/1000 patient-years (in vivo): 21.2 per 1000 patient years; Difference between treatment groups in HbA1c changes from baseline over time, in words (in vivo): significant up to the Week 132 visit; Fasting plasma glucose (FPG) vs placebo, in words (in vivo): significant differences observed between the treatment groups up to Week 84; Fatal myocardial infarction: % (in vivo): (0.3) %; Fatal myocardial infarction: hazard ratio vs placebo (in vivo): 0.78; Fatal myocardial infarction: no. (in vivo): 11; Fatal myocardial infarction: rate/1000 patient-years (in vivo): 1.4 per 1000 patient years; Fatal or non-fatal myocardial infarction: % (in vivo): (4.7) %; Fatal or non-fatal myocardial infarction: hazard ratio vs placebo (in vivo): 1.12; Fatal or non-fatal myocardial infarction: no. (in vivo): 165; Fatal or non-fatal myocardial infarction: rate/1000 patient-years (in vivo): 21.8 per 1000 patient years; Fatal or non-fatal stroke: % (in vivo): (2.3) %; Fatal or non-fatal stroke: hazard ratio vs placebo (in vivo): 0.91; Fatal or non-fatal stroke: no. (in vivo): 81; Fatal or non-fatal stroke: rate/1000 patient-years (in vivo): 10.6 per 1000 patient years; Fatal stroke: % (in vivo): (0.5) %; Fatal stroke: hazard ratio vs placebo (in vivo): 1.05; Fatal stroke: no. (in vivo): 17; Fatal stroke: rate/1000 patient-years (in vivo): 2.2 per 1000 patient years; Gastric cancer: % (in vivo): 0.0%; Gastric cancer: N (in vivo): 0; Hospitalization for heart failure or cardiovascular death: % (in vivo): (11.6) %; Hospitalization for heart failure or cardiovascular death: hazard ratio vs placebo (in vivo): 0.94; Hospitalization for heart failure or cardiovascular death: no. (in vivo): 406; Hospitalization for heart failure or cardiovascular death: rate per 100 person-years (in vivo): 5.37 per 100 person-years; Hospitalization for heart failure or cardiovascular death: rate/1000 patient-years (in vivo): 53.7 per 1000 patient years; Hospitalization for unstable angina: % (in vivo): (1.2) %; Hospitalization for unstable angina: hazard ratio vs placebo (in vivo): 0.87; Hospitalization for unstable angina: no. (in vivo): 42
